# According to ChEMBL document CHEMBL1201862, “PubChem BioAssay data set” (2004):
#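 Following 48 hours of exposure in 96-well plates, responses at five concentrations were used to interpolate endpoints linearly. GI50 is the concentration that inhibits growth by half.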 The source made the active and inactive calls. No stated cut-off is given here; in the data, active = GI50 up to about 1.1 µM and inactive = higher.
# Columns and labels:
# Experiment in all cases: DTP human tumour cell line panel, 48 h
# SF-539 = test system: SF-539
# MOLT-4 = test system: MOLT-4
# A549 = test system: A549
# MDA-MB-435 = test system: MDA-MB-435
# HT-29 = test system: HT-29
# A498 = test system: A498
# HCT-116 = test system: HCT-116
# U-251 = test system: U-251
# PC-3 = test system: PC-3
# MCF7 = test system: MCF7
# Hs-578T = test system: Hs-578T
# OVCAR-5 = test system: OVCAR-5
# IGROV-1 = test system: IGROV-1
# K562 = test system: K562
# OVCAR-8 = test system: OVCAR-8
# SK-MEL-2 = test system: SK-MEL-2
# LOX IMVI = test system: LOX IMVI
# SF-268 = test system: SF-268
# SR = test system: SR
# OVCAR-3 = test system: OVCAR-3
# OVCAR-4 = test system: OVCAR-4
# Malme-3M = test system: Malme-3M
# M14 = test system: M14
# UACC-62 = test system: UACC-62
# RPMI-8226 = test system: RPMI-8226
# T47D = test system: T47D
# 786-0 = test system: 786-0
# UACC-257 = test system: UACC-257
# SNB-19 = test system: SNB-19
# HCT-15 = test system: HCT-15
# CCRF-CEM = test system: CCRF-CEM
# NCI-H226 = test system: NCI-H226
# MDA-MB-231 = test system: MDA-MB-231
# SK-MEL-5 = test system: SK-MEL-5
# HL-60 = test system: HL-60
# TK-10 = test system: TK-10
# COLO 205 = test system: COLO 205
# CAKI-1 = test system: CAKI-1
# SN12C = test system: SN12C
# SF-295 = test system: SF-295
# DU-145 = test system: DU-145
# HOP-62 = test system: HOP-62
# SK-OV-3 = test system: SK-OV-3
# UO-31 = test system: UO-31
# SK-MEL-28 = test system: SK-MEL-28
# ACHN = test system: ACHN
# BT-549 = test system: BT-549
# HOP-92 = test system: HOP-92
# NCI/ADR-RES = test system: NCI/ADR-RES
# SW-620 = test system: SW-620
# KM12 = test system: KM12
# HCC 2998 = test system: HCC 2998
# EKVX = test system: EKVX
# MDA-N = test system: MDA-N
# NCI-H23 = test system: NCI-H23
# NCI-H460 = test system: NCI-H460
# NCI-H522 = test system: NCI-H522
# SNB-75 = test system: SNB-75
# RXF 393 = test system: RXF 393
smiles,measurement,setting,value
COC(=O)CCc1cc(OC)c2oc(-c3ccc(OC)c(OC)c3)c(CO)c2c1,GI50,SF-539,> 100 µM (inactive)
same,GI50,MOLT-4,95.5 µM (inactive)
same,GI50,A549,> 100 µM (inactive)
same,GI50,MDA-MB-435,> 100 µM (inactive)
same,GI50,HT-29,> 100 µM (inactive)
same,GI50,A498,> 100 µM (inactive)
same,GI50,HCT-116,> 100 µM (inactive)
same,GI50,U-251,> 100 µM (inactive)
same,GI50,PC-3,> 100 µM (inactive)
same,GI50,MCF7,> 100 µM (inactive)
same,GI50,Hs-578T,> 100 µM (inactive)
same,GI50,OVCAR-5,> 100 µM (inactive)
same,GI50,IGROV-1,> 100 µM (inactive)
same,GI50,K562,> 100 µM (inactive)
same,GI50,OVCAR-8,> 100 µM (inactive)
same,GI50,SK-MEL-2,65 µM (inactive)
same,GI50,LOX IMVI,> 100 µM (inactive)
same,GI50,SF-268,> 100 µM (inactive)
same,GI50,SR,56 µM (inactive)
same,GI50,OVCAR-3,> 100 µM (inactive)
same,GI50,OVCAR-4,> 100 µM (inactive)
same,GI50,Malme-3M,> 100 µM (inactive)
same,GI50,M14,> 100 µM (inactive)
same,GI50,UACC-62,> 100 µM (inactive)
same,GI50,RPMI-8226,99.5 µM (inactive)
same,GI50,T47D,86.7 µM (inactive)
same,GI50,786-0,> 100 µM (inactive)
same,GI50,UACC-257,> 100 µM (inactive)
same,GI50,SNB-19,> 100 µM (inactive)
same,GI50,HCT-15,> 100 µM
same,GI50,CCRF-CEM,> 100 µM (inactive)
same,GI50,NCI-H226,> 100 µM (inactive)
same,GI50,MDA-MB-231,> 100 µM (inactive)
same,GI50,SK-MEL-5,> 100 µM (inactive)
same,GI50,HL-60,> 100 µM (inactive)
same,GI50,TK-10,> 100 µM (inactive)
same,GI50,COLO 205,> 100 µM (inactive)
same,GI50,CAKI-1,> 100 µM (inactive)
same,GI50,SN12C,> 100 µM (inactive)
same,GI50,SF-295,> 100 µM (inactive)
same,GI50,DU-145,> 100 µM (inactive)
same,GI50,HOP-62,> 100 µM (inactive)
same,GI50,SK-OV-3,> 100 µM (inactive)
same,GI50,UO-31,> 100 µM (inactive)
same,GI50,SK-MEL-28,> 100 µM (inactive)
same,GI50,ACHN,> 100 µM (inactive)
same,GI50,BT-549,> 100 µM (inactive)
same,GI50,HOP-92,> 100 µM (inactive)
same,GI50,NCI/ADR-RES,> 100 µM (inactive)
same,GI50,SW-620,> 100 µM (inactive)
same,GI50,KM12,> 100 µM (inactive)
same,GI50,HCC 2998,1.7 µM (inactive)
same,GI50,EKVX,> 100 µM (inactive)
same,GI50,MDA-N,> 100 µM (inactive)
same,GI50,NCI-H23,> 100 µM (inactive)
same,GI50,NCI-H460,> 100 µM (inactive)
same,GI50,NCI-H522,> 100 µM (inactive)
N#CC1=C(N)N(c2ccccc2)C(c2ccco2)C1(C#N)C#N (centres undefined),GI50,SF-539,19.3 µM (inactive)
same,GI50,MOLT-4,25.5 µM (inactive)
same,GI50,A549,38.2 µM (inactive)
same,GI50,MDA-MB-435,28.4 µM (inactive)
same,GI50,HT-29,20 µM (inactive)
same,GI50,SNB-75,20 µM (inactive)
same,GI50,A498,21.8 µM (inactive)
same,GI50,HCT-116,28.5 µM (inactive)
same,GI50,U-251,21.8 µM (inactive)
same,GI50,PC-3,27.4 µM (inactive)
same,GI50,MCF7,17.4 µM (inactive)
same,GI50,Hs-578T,36.6 µM (inactive)
same,GI50,OVCAR-5,22.9 µM (inactive)
same,GI50,IGROV-1,19.2 µM (inactive)
same,GI50,K562,6.58 µM (inactive)
same,GI50,OVCAR-8,23.3 µM (inactive)
same,GI50,SK-MEL-2,27.5 µM (inactive)
same,GI50,LOX IMVI,16.7 µM (inactive)
same,GI50,SF-268,34.7 µM (inactive)
same,GI50,SR,20.5 µM (inactive)
same,GI50,OVCAR-3,19 µM (inactive)
same,GI50,OVCAR-4,21.3 µM (inactive)
same,GI50,Malme-3M,22.9 µM (inactive)
same,GI50,M14,20.6 µM (inactive)
same,GI50,UACC-62,23.2 µM (inactive)
same,GI50,RPMI-8226,19.4 µM (inactive)
same,GI50,T47D,15.2 µM (inactive)
same,GI50,786-0,17.5 µM (inactive)
same,GI50,UACC-257,18.4 µM (inactive)
same,GI50,SNB-19,26.9 µM (inactive)
same,GI50,RXF 393,17.5 µM (inactive)
same,GI50,HCT-15,18.3 µM
same,GI50,CCRF-CEM,14.3 µM (inactive)
same,GI50,NCI-H226,18 µM (inactive)
same,GI50,MDA-MB-231,15.3 µM (inactive)
same,GI50,SK-MEL-5,17.4 µM (inactive)
same,GI50,HL-60,17.5 µM (inactive)
same,GI50,TK-10,16.4 µM (inactive)
same,GI50,COLO 205,19.4 µM (inactive)
same,GI50,CAKI-1,30.6 µM (inactive)
same,GI50,SN12C,30.3 µM (inactive)
same,GI50,SF-295,28.4 µM (inactive)
same,GI50,DU-145,19.4 µM (inactive)
same,GI50,HOP-62,21.8 µM (inactive)
same,GI50,SK-OV-3,77.8 µM (inactive)
same,GI50,UO-31,18.7 µM (inactive)
same,GI50,SK-MEL-28,17.9 µM (inactive)
same,GI50,ACHN,16.7 µM (inactive)
same,GI50,BT-549,18.8 µM (inactive)
same,GI50,NCI/ADR-RES,27 µM (inactive)
same,GI50,SW-620,17.9 µM (inactive)
same,GI50,KM12,17.4 µM (inactive)
same,GI50,HCC 2998,16.4 µM (inactive)
same,GI50,EKVX,20 µM (inactive)
same,GI50,MDA-N,27.8 µM (inactive)
same,GI50,NCI-H23,19.9 µM (inactive)
same,GI50,NCI-H522,16.7 µM (inactive)
